Assay results taken from patent US20230139171A1 (SITA Information Networking Computing UK Limited, priority 2019, published 2023).

Tests used:
Type in all cases: cell-based
human TLR7 = biological target: T1, human TLR7 (Homo sapiens, UniProt Q9NYK1); experiment: TLR7 inhibition reporter assay (HEK-Blue cells, SEAP reporter, gardiquimod stimulation); details: HEK-Blue cells overexpressing human TLR7, SEAP reporter, gardiquimod 7.5 μM; read-out: TLR7 IC50
T1 construct: host or cells: HEK-Blue cells
T1 sequence (Q9NYK1 27-1049): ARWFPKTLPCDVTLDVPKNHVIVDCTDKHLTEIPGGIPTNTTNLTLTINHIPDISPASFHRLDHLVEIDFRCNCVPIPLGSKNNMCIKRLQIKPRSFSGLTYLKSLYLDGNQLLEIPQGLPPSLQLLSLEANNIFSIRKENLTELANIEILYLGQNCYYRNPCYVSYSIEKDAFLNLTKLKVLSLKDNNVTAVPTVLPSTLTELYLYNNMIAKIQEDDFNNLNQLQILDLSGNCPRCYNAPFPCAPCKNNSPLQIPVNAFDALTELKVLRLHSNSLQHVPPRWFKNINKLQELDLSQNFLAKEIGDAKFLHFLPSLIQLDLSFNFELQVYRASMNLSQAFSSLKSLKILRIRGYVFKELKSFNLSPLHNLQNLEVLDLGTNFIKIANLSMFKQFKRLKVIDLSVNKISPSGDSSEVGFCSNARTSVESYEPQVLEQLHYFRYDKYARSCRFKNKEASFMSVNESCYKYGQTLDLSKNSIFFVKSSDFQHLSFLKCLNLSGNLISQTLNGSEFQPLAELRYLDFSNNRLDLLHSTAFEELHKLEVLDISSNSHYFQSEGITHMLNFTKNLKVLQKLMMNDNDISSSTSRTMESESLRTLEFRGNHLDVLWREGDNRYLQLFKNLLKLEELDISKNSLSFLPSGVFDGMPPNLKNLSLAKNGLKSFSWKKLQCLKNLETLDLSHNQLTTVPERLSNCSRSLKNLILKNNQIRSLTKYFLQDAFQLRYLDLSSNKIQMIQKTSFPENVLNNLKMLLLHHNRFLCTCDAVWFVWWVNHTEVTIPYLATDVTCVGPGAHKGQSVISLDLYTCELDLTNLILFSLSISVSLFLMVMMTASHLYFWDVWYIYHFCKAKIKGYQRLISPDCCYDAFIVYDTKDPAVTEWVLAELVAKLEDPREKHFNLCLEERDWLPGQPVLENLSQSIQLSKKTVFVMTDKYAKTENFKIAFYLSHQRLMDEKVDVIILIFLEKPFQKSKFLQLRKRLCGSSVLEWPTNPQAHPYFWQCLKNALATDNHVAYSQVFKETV
Procedure, shortened: (§1)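 Dose–response from 0.05 nM to 50 μM was run in HEK-Blue human TLR7, TLR8 and TLR9 reporter cells. After 30 min at room temperature with compound, ligand was added (TLR7 gardiquimod 7.5 μM; TLR8 R848 15.9 μM; TLR9 ODN2006 5 nM) and SEAP measured next day, at 22 h.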

human TLR8 = biological target: T2, human TLR8 (Homo sapiens, UniProt Q9NR97); experiment: TLR8 inhibition reporter assay (HEK-Blue cells, SEAP reporter, R848 stimulation); details: HEK-Blue cells overexpressing human TLR8, SEAP reporter, R848 15.9 μM; read-out: TLR8 IC50
T2 construct: host or cells: HEK-Blue cells
T2 sequence (Q9NR97 27-1041): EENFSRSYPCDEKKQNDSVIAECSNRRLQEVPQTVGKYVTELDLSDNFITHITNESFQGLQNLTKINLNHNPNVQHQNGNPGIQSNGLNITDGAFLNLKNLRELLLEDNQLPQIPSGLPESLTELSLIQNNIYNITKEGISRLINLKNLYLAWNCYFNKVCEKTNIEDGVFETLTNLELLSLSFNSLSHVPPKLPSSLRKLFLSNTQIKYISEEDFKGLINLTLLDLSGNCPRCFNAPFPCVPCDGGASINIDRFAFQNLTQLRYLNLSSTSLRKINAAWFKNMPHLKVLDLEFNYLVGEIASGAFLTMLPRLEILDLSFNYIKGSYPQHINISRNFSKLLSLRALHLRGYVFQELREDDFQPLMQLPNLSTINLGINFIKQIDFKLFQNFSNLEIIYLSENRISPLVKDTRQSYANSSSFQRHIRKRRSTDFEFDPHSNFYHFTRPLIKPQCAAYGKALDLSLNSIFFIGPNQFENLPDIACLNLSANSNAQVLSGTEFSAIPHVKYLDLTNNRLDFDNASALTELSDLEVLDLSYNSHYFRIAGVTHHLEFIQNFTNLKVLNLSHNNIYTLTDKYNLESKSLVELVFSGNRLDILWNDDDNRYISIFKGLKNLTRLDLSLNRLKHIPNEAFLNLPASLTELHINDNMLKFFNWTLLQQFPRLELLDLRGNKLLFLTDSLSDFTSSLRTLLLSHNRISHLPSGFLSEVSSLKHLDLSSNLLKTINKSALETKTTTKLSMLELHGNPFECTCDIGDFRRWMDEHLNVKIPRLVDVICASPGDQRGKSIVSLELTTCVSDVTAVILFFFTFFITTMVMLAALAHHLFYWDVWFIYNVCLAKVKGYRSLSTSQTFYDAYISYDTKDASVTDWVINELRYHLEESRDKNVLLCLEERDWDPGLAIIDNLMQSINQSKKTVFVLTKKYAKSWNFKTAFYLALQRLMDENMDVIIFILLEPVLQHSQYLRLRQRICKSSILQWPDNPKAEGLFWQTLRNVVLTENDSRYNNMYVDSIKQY
Procedure, shortened: as §1

human TLR9 = biological target: T3, human TLR9 (Homo sapiens, UniProt Q9NR96); experiment: TLR9 inhibition reporter assay (HEK-Blue cells, SEAP reporter, ODN2006 stimulation); details: HEK-Blue cells overexpressing human TLR9, SEAP reporter, ODN2006 5 nM
T3 construct: host or cells: HEK-Blue cells
T3 sequence (Q9NR96 26-1032): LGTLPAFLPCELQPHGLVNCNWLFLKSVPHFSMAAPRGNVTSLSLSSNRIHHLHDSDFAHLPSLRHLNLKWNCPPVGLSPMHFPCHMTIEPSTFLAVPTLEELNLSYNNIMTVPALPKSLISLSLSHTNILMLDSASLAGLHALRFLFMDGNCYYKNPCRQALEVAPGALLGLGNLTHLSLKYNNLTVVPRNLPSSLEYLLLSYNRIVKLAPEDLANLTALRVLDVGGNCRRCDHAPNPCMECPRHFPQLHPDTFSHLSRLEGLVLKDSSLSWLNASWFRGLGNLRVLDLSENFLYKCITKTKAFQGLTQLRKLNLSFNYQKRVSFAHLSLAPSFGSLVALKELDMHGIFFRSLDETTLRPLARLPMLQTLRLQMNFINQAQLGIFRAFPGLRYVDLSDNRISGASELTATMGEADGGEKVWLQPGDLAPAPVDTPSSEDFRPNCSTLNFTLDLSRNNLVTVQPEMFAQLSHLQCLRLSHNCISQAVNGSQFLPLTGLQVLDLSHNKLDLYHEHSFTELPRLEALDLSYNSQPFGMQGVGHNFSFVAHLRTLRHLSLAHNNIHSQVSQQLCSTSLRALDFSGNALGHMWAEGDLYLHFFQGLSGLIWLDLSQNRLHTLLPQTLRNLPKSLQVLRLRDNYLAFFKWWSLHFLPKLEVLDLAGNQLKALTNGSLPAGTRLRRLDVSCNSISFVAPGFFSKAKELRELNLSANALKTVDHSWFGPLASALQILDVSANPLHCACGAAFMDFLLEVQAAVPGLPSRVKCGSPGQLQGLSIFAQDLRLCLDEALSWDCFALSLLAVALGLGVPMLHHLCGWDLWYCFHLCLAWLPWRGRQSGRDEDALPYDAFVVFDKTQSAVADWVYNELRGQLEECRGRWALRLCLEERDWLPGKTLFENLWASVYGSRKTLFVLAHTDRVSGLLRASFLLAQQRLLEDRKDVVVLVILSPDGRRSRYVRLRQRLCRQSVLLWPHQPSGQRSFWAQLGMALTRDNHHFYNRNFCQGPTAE
Procedure, shortened: as §1

SMILES	IC50 (human TLR7)	IC50 (human TLR8)	IC50 (human TLR9)
CCC1(NC2CCC(c3nc4c(C(C)C)c(-c5cc(OC)c6ncnn6c5)[nH]c4s3)CC2)COC1 (single isomer, unassigned) [Example 95, 3-ethyl-N-(4-(6-isopropyl-5-(8-methoxy-[1,2,4]triazolo[1,5-a]pyridin-6-yl)-4H-pyrrolo[3,2-d]thiazol-2-yl)cyclohexyl)oxetan-3-amine]	11.7 nM	23.8 nM	43200 nM
COc1cc(-c2[nH]c3sc(C4CCC(N5CCCC5)CC4)nc3c2C(C)C)cn2ncnc12 (single isomer, unassigned) [Example 99, 6-isopropyl-5-(8-methoxy-[1,2,4]triazolo[1,5-a]pyridin-6-yl)-2-(4-(pyrrolidin-1-yl)cyclohexyl)-4H-pyrrolo[3,2-d]thiazole]	1.19 nM	36.7 nM	3610 nM
COc1cc(-c2[nH]c3sc(C4CCC(N5CCCOCC5)CC4)nc3c2C(C)C)cn2ncnc12 (single isomer, unassigned) [Example 102, 4-(4-(6-isopropyl-5-(8-methoxy-[1,2,4]triazolo[1,5-a]pyridin-6-yl)-4H-pyrrolo[3,2-d]thiazol-2-yl)cyclohexyl)-1,4-oxazepane]	0.37 nM	14 nM	3890 nM
COc1cc(-c2[nH]c3sc(C4CCC(N5CCCOCC5)CC4)nc3c2C(C)C)cn2ncnc12 (single isomer, unassigned) [Example 103, 4-(4-(6-isopropyl-5-(8-methoxy-[1,2,4]triazolo[1,5-a]pyridin-6-yl)-4H-pyrrolo[3,2-d]thiazol-2-yl)cyclohexyl)-1,4-oxazepane]	48 nM	3.46 nM	3600 nM
COc1cc(-c2[nH]c3sc(C4CCC(N5[C@@H]6CC[C@H]5COC6)CC4)nc3c2C(C)C)cn2ncnc12 (single isomer, unassigned) [Example 104]	1.98 nM	2.81 nM	5600 nM
COc1cc(-c2[nH]c3sc(C4CCC(N5[C@@H]6CC[C@H]5COC6)CC4)nc3c2C(C)C)cn2ncnc12 (single isomer, unassigned) [Example 105]	1.38 nM	43.2 nM	2180 nM
COc1cc(-c2[nH]c3sc(C4CCC(N5CC6(CCOCC6)C5)CC4)nc3c2C(C)C)cn2ncnc12 (single isomer, unassigned) [Example 110, 2-(4-(6-isopropyl-5-(8-methoxy-[1,2,4]triazolo[1,5-a]pyridin-6-yl)-4H-pyrrolo[3,2-d]thiazol-2-yl)cyclohexyl)-7-oxa-2-azaspiro[3.5]nonane]	2.21 nM	0.93 nM	5780 nM

Further molecules by falling IC50 (human TLR7), results first:

IC50 (human TLR7)	IC50 (human TLR8)	IC50 (human TLR9)	SMILES
78.9 nM	114 nM	6400 nM	COc1cc(-c2[nH]c3sc(C4CCC(N5CC[C@@H](NC(C)=O)C5)CC4)nc3c2C(C)C)cn2ncnc12 (single isomer, unassigned) [Example 100]
6.81 nM	27.9 nM	6090 nM	COc1cc(-c2[nH]c3sc(C4CCC(NC5(C)CCC5)CC4)nc3c2C(C)C)cn2ncnc12 (single isomer, unassigned) [Example 109, 4-(6-isopropyl-5-(8-methoxy-[1,2,4]triazolo[1,5-a]pyridin-6-yl)-4H-pyrrolo[3,2-d]thiazol-2-yl)-N-(1-methylcyclobutyl) cyclohexan-1-amine]
3.68 nM	23 nM	4790 nM	COc1cc(-c2[nH]c3sc(C4CCC(N5CC[C@@H](NC(C)=O)C5)CC4)nc3c2C(C)C)cn2ncnc12 (single isomer, unassigned) [Example 101]
1.53 nM	0.98 nM	7770 nM	COc1cc(-c2[nH]c3sc(C4CCC(N5CC6(C5)CS(=O)(=O)C6)CC4)nc3c2C(C)C)cn2ncnc12 (single isomer, unassigned) [Example 96, 6-(4-(6-isopropyl-5-(8-methoxy-[1,2,4]triazolo[1,5-a]pyridin-6-yl)-4H-pyrrolo[3,2-d]thiazol-2-yl)cyclohexyl)-2-thia-6-azaspiro[3.3]heptane 2,2-dioxide]
1.34 nM	4.49 nM	5700 nM	COc1cc(-c2[nH]c3sc(C4CCC(NC5(C)CCC5)CC4)nc3c2C(C)C)cn2ncnc12 (single isomer, unassigned) [Example 108, 4-(6-isopropyl-5-(8-methoxy-[1,2,4]triazolo[1,5-a]pyridin-6-yl)-4H-pyrrolo[3,2-d]thiazol-2-yl)-N-(1-methylcyclobutyl) cyclohexan-1-amine]
0.12 nM	1.37 nM	2980 nM	COc1cc(-c2[nH]c3sc(C4CCC(N5CCCC5)CC4)nc3c2C(C)C)cn2ncnc12 (single isomer, unassigned) [Example 98, 6-isopropyl-5-(8-methoxy-[1,2,4]triazolo[1,5-a]pyridin-6-yl)-2-(4-(pyrrolidin-1-yl)cyclohexyl)-4H-pyrrolo[3,2-d]thiazole]
